We go through four molecules from ChEMBL document CHEMBL3132769, “Fragment growing to retain or alter the selectivity of anchored kinase hinge-binding fragments” (Medchemcomm, 2014).

Assay [1] concerns the target Calcium/calmodulin-dependent protein kinase type II subunit beta (Homo sapiens) (UniProt Q13554). Kind of assay: Inhibition of human CAMK2 beta catalytic domain expressed in baculovirus assessed as substrate phosphorylation using fluorescence-labelled peptides as substrate at 0.06 uM after 90 mins by microfluidic peptide phosphorylation assay.
Assay [2] addresses T1, Calcium/calmodulin-dependent protein kinase type IV (Homo sapiens) (UniProt Q16566).
T1 sequence (whole entry): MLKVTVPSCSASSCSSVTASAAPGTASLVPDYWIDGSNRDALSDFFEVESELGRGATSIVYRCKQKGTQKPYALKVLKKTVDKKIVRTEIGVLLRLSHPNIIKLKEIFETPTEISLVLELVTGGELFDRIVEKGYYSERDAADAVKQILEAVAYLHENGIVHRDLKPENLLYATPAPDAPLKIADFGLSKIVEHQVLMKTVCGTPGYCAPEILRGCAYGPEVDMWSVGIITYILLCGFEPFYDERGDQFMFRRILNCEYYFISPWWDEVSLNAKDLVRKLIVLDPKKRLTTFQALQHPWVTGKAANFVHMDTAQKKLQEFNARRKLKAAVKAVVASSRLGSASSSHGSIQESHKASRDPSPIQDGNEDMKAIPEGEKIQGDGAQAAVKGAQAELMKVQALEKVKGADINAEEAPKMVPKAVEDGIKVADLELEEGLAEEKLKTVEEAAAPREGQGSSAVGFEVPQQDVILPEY
As to the kind of experiment: Inhibition of human full length CAMK4 expressed in baculovirus assessed as substrate phosphorylation using fluorescence-labelled peptides as substrate at 0.06 uM after 90 mins by microfluidic peptide phosphorylation assay.

For assay [3], the system named is T2, Receptor-type tyrosine-protein kinase FLT3 (Homo sapiens), P36888 [D835Y].
T2 sequence (whole entry): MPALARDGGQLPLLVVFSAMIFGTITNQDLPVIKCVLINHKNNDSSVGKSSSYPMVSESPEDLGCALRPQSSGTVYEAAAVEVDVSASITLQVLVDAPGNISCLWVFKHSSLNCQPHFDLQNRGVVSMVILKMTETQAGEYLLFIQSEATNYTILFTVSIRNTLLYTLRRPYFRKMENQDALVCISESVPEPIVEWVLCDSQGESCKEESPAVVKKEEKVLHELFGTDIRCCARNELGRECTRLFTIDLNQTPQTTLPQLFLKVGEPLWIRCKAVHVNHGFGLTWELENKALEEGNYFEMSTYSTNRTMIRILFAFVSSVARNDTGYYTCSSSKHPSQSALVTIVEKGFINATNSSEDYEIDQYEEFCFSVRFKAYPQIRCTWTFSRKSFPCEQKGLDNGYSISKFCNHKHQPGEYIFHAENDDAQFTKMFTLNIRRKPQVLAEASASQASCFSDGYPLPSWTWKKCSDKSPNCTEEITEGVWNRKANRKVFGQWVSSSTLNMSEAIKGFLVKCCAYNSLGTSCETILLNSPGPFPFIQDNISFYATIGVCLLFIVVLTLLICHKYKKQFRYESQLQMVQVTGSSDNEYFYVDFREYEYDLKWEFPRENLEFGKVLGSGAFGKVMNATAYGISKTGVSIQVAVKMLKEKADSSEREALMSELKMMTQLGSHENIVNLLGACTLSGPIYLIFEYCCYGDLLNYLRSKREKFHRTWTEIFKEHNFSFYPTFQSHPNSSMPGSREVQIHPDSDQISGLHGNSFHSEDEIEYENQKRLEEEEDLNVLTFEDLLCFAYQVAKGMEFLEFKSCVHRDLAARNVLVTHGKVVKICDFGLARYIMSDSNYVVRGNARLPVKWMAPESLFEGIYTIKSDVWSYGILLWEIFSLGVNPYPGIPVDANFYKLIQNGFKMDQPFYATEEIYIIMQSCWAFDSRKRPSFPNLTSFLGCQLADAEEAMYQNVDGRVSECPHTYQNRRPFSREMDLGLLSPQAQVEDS
Kind of assay: Inhibition of human FLT3 D835Y mutant catalytic domain expressed in baculovirus assessed as substrate phosphorylation using fluorescence-labelled peptides as substrate at 0.2 uM after 90 mins by microfluidic peptide phosphorylation assay.

Assay [4] has as its target T3, Serine/threonine-protein kinase DCLK2 (Homo sapiens) (UniProt Q8N568).
T3 sequence (whole entry): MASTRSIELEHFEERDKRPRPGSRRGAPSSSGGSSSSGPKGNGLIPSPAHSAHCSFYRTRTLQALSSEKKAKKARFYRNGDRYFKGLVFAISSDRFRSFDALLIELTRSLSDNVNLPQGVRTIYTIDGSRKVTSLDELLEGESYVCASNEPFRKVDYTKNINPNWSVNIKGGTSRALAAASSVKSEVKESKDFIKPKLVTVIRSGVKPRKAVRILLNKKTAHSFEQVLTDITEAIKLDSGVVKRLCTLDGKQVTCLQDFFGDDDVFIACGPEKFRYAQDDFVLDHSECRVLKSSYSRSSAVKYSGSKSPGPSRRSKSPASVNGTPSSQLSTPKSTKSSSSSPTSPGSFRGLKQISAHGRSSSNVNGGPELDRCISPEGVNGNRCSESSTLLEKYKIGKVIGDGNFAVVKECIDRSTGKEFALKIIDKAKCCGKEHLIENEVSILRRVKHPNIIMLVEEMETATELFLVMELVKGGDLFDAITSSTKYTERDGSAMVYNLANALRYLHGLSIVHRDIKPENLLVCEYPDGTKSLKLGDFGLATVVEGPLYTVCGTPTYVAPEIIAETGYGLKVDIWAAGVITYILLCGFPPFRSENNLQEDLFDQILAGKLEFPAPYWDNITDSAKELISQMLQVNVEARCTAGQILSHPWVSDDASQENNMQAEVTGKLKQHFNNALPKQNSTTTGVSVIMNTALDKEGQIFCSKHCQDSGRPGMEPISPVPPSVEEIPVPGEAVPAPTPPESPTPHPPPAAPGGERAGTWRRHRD
Kind of assay: Inhibition of human full length DCAMKL2 expressed in baculovirus assessed as substrate phosphorylation using fluorescence-labelled peptides as substrate at 95 uM after 90 mins by microfluidic peptide phosphorylation assay.

Assay [5] addresses T4, MAP kinase-activated protein kinase 5 (Homo sapiens) (UniProt Q8IW41).
T4 sequence (whole entry): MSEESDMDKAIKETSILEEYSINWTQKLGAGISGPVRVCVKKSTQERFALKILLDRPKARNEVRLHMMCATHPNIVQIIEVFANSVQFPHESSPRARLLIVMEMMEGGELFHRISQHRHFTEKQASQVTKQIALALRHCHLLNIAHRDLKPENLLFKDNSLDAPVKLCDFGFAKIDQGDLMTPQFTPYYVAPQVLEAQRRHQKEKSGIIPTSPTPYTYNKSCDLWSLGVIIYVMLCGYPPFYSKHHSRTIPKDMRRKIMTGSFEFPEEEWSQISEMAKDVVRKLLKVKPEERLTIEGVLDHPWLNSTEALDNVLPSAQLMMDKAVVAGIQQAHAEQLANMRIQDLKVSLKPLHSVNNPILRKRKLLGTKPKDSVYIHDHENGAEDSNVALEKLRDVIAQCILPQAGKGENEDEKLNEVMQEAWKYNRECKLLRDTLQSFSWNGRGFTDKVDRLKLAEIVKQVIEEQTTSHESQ
As to the kind of experiment: Inhibition of human full length PRAK expressed in baculovirus assessed as substrate phosphorylation using fluorescence-labelled peptides as substrate at […] after 90 mins by microfluidic peptide phosphorylation assay.

The term inhibition denotes the relative decrease from the control value, in per cent.

Sequence of Calcium/calmodulin-dependent protein kinase type II subunit beta (Homo sapiens) (Q13554 whole entry, the tested form may be a part): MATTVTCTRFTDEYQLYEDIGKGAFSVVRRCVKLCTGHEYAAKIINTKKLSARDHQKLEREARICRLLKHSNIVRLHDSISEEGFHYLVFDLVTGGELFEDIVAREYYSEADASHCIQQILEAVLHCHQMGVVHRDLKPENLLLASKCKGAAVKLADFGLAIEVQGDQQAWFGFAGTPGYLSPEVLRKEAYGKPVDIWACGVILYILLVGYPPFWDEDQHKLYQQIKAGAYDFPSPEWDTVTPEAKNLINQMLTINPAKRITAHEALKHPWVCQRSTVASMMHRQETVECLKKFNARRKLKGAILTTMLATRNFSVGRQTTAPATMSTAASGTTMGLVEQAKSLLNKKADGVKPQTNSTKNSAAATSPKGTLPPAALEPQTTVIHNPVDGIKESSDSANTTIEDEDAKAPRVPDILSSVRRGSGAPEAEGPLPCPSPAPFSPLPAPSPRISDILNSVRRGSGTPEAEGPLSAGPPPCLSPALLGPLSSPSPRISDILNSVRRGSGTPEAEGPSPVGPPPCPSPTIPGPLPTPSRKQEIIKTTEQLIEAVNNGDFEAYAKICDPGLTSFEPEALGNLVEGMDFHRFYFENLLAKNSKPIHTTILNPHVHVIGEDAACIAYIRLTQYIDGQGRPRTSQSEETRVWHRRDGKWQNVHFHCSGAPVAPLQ

For `NC1(Cc2ccc(Cl)cc2)CCN(c2ncnc3[nH]ccc23)CC1`, the inhibition in assay [1] is 0%; in assay [2], 6%.

For `Clc1ccc(C2(c3ccc(-c4ncnc5[nH]cnc45)cc3)CCNCC2)cc1`, the inhibition in assay [3] came to 16%.

On to `NCCc1ccc(-c2ncnc3[nH]cnc23)cc1`, for which the inhibition in assay [4] came to 35%. With `COC(=O)c1cnc(Nc2cnc(C#N)cn2)cc1NCC1CCNCC1`, in assay [5], the inhibition came out at 4%.
